Measured values taken from US7332501B2, “Indol-3-yl-carbonyl-spiro-piperidine derivatives as V1a receptor antagonists” (Hoffmann-La Roche Inc., priority 2005, dated 2008).

Target: T1, human V1a receptor (Homo sapiens, UniProt P37288)
T1 construct: expressed in transfected cells; host or cells: HEK293 cells, transiently transfected; cell membranes
Test: human V1a receptor binding (3H-Vasopressin SPA, HEK293 membranes)
Details: displacement of 4 nM 3H-Vasopressin, membranes of HEK293 cells transiently transfected with human V1a receptor; Ki from IC50 by Cheng-Prussoff
Method in brief: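 Ki derived by Cheng-Prusoff from IC50 curves normalised to specific binding. Serially diluted compounds (in 2% DMSO) competed with 3H-vasopressin (4 nM working solution) for 1 h at room temperature on SPA beads bearing membranes of transiently transfected HEK293 cells; unlabelled vasopressin defined non-specific counts.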

T1 sequence (P37288 whole entry): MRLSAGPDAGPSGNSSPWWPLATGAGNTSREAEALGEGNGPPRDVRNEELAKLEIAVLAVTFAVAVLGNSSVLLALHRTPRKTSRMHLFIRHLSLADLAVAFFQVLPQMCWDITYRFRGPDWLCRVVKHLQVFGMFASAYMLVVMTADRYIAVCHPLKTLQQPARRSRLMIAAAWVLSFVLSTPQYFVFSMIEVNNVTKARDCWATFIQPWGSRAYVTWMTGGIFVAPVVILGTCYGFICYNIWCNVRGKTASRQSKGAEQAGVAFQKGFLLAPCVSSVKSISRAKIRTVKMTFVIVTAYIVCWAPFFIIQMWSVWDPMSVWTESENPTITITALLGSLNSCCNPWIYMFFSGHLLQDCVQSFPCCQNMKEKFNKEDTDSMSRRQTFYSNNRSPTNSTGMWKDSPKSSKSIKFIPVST

| Compound | Ki [nM] |
| --- | --- |
| CN1CCN(C(=O)Cn2cc(C(=O)N3CCC4(CC3)OC(=O)c3cc(F)ccc34)c3ccc(Cl)cc32)CC1 [Example 114, 1′-({6-Chloro-1-[2-(4-methylpiperazin-1-yl)-2-oxoethyl]-1H-indol-3-yl}carbonyl)-5-fluoro-3H-spiro[2-benzofuran-1,4′-piperidin]-3-one] | 1.3 |
| CN(C)CCNC(=O)Cn1cc(C(=O)N2CCC3(CC2)OC(=O)c2ccccc23)c2ccc(Cl)cc21 [Example 119, 2-{6-Chloro-3-[(3-oxo-1′H,3H-spiro[2-benzofuran-1,4′-piperidin]-1′-yl)carbonyl]-1H-indol-1-yl}-N-[2-(dimethylamino)ethyl]acetamide] | 24 |
| Cc1c(C(=O)N2CCC3(CC2)OC(=O)c2ccc(OCCO)cc23)c2ccccc2n1Cc1ccccc1 [Example 122, 1′-[(1-benzyl-2-methyl-1H-indol-3-yl)carbonyl]-6-(2-hydroxyethoxy)-3H-spiro[2-benzofuran-1,4′-piperidin]-3-one] | 5.2 |
| Cc1c(C(=O)N2CCC3(CC2)OC(=O)c2ccccc23)c2ccccc2n1Cc1ccccc1 [Example 126, 1′-[(1-Benzyl-2-methyl-1H-indol-3-yl)carbonyl]-3H-spiro[2-benzofuran-1,4′-piperidin]-3-one] | 3 |
| O=C1OC2(CCN(C(=O)c3cn(Cc4cc(F)cc(F)c4)c4cc(Cl)ccc34)CC2)c2ccccc21 [Example 133, 1′-{[6-Chloro-1-(3,5-difluorobenzyl)-1H-indol-3-yl]carbonyl}-3H-spiro[2-benzofuran-1,4′-piperidin]-3-one] | 0.9 |
| O=C1OC2(CCN(C(=O)c3cn(Cc4cccc(F)c4)c4cc(Cl)ccc34)CC2)c2ccccc21 [Example 134, 1′-{[6-Chloro-1-(3-fluorobenzyl)-1H-indol-3-yl]carbonyl}-3H-spiro[2-benzofuran-1,4′-piperidin]-3-one] | 1 |
| O=C(Cn1cc(C(=O)N2CCC3(CC2)OC(=O)c2ccccc23)c2ccc(Cl)cc21)c1cc(F)ccc1F [Example 136, 1′-({6-Chloro-1-[2-(2,5-difluorophenyl)-2-oxoethyl]-1H-indol-3-yl]carbonyl)-3H-spiro[2-benzofuran-1,4′-piperidin]-3-one] | 3 |
| O=C1OC2(CCN(C(=O)c3cn(Cc4cc(F)cc(F)c4)c4cc(Cl)ccc34)CC2)c2ccc(F)cc21 [Example 142, 1′-{[6-Chloro-1-(3,5-difluorobenzyl)-1H-indol-3-yl]carbonyl}-5-fluoro-3H-spiro[2-benzofuran-1,4′-piperidin]-3-one] | 0.6 |
| O=C1OC2(CCN(C(=O)c3cn(Cc4cccc(F)c4)c4cc(Cl)ccc34)CC2)c2ccc(F)cc21 [Example 143, 1′-{[6-Chloro-1-(3-fluorobenzyl)-1H-indol-3-yl]carbonyl}-5-fluoro-3H-spiro[2-benzofuran-1,4′-piperidin]-3-one] | 1 |

The remaining molecules from weak to strong by Ki, led by results:

| Ki [nM] | Compound |
| --- | --- |
| 11.1 | O=C1OC2(CCN(C(=O)c3cn(C(=O)c4cc(F)cc(F)c4)c4cc(Cl)ccc34)CC2)c2ccccc21 [Example 130, 1′-{[6-Chloro-1-(3,5-difluorobenzoyl)-1H-indol-3-yl]carbonyl}-3H-spiro[2-benzofuran-1,4′-piperidin]-3-one] |
| 10.4 | NC(=O)Cn1cc(C(=O)N2CCC3(CC2)OC(=O)c2cc(F)ccc23)c2ccc(Cl)cc21 [Example 115, 2-{6-Chloro-3-[(5-fluoro-3-oxo-1′H,3H-spiro[2-benzofuran-1,4′-piperidin]-1′-yl)carbonyl]-1H-indol-1-yl}acetamide] |
| 4.8 | O=C1OC2(CCN(C(=O)c3cn(Cc4cccc(F)c4)c4cc(Cl)ccc34)CC2)c2ccc(Br)cc21 [Example 151, 5-Bromo-1′-{[6-chloro-1-(3-fluorobenzyl)-1H-indol-3-yl]carbonyl}-3H-spiro[2-benzofuran-1,4′-piperidin]-3-one] |
| 4.4 | O=C(Cn1cc(C(=O)N2CCC3(CC2)OC(=O)c2cc(Br)ccc23)c2ccc(Cl)cc21)c1cccc(F)c1 [Example 152, 5-Bromo-1′-({6-chloro-1-[2-(3-fluorophenyl)-2-oxoethyl]-1H-indol-3-yl}carbonyl)-3H-spiro[2-benzofuran-1,4′-piperidin]-3-one] |
| 3.8 | O=C1OC2(CCN(C(=O)c3cn(Cc4cc(F)cc(F)c4)c4cc(Cl)ccc34)CC2)c2ccc(Br)cc21 [Example 150, 5-Bromo-1′-{[6-chloro-1-(3,5-difluorobenzyl)-1H-indol-3-yl]carbonyl}-3H-spiro[2-benzofuran-1,4′-piperidin]-3-one] |
| 3 | O=C1OC2(CCN(C(=O)c3cn(-c4cc(F)cc(F)c4)c4cc(Cl)ccc34)CC2)c2ccccc21 [Example 127, 1′-{[6-Chloro-1-(3,5-difluorophenyl)-1H-indol-3-yl]carbonyl}-3H-spiro[2-benzofuran-1,4′-piperidin]-3-one] |
| 2.7 | Cc1cc2c(C(=O)N3CCC4(CC3)OC(=O)c3ccccc34)cn(CC(=O)N(C)C)c2cc1Cl [Example 120, 2-{6-Chloro-5-methyl-3-[(3-oxo-1′H,3H-spiro[2-benzofuran-1,4′-piperidin]-1′-yl)carbonyl]-1H-indol-1-yl}-N,N-dimethylacetamide] |
| 2 | CC(C)(C)OC(=O)Cn1cc(C(=O)N2CCC3(CC2)OC(=O)c2cc(F)ccc23)c2ccc(Cl)cc21 [Example 112, tert-Butyl {6-chloro-3-[(5-fluoro-3-oxo-1′H,3H-spiro[2-benzofuran-1,4′-piperidin]-1′-yl)carbonyl]-1H-indol-1-yl}acetate] |
| 2 | O=C(Cn1cc(C(=O)N2CCC3(CC2)OC(=O)c2cc(F)ccc23)c2ccc(Cl)cc21)c1cccc(F)c1 [Example 144, 1′-({6-Chloro-1-[2-(3-fluorophenyl)-2-oxoethyl]-1H-indol-3-yl}carbonyl)-5-fluoro-3H-spiro[2-benzofuran-1,4′-piperidin]-3-one] |
| 1.8 | O=C(Cn1cc(C(=O)N2CCC3(CC2)OC(=O)c2ccccc23)c2ccc(Cl)cc21)c1cccc(F)c1 [Example 135, 1′-({6-Chloro-1-[2-(3-fluorophenyl)-2-oxoethyl]-1H-indol-3-yl}carbonyl)-3H-spiro[2-benzofuran-1,4′-piperidin]-3-one] |
| 1.7 | CNC(=O)Cn1cc(C(=O)N2CCC3(CC2)OC(=O)c2cc(F)ccc23)c2ccc(Cl)cc21 [Example 116, 2-{6-Chloro-3-[(5-fluoro-3-oxo-1′H,3H-spiro[2-benzofuran-1,4′-piperidin]-1′-yl)carbonyl]-1H-indol-1-yl}-N-methylacetamide] |
| 1.2 | O=C1OC2(CCN(C(=O)c3cn(CC(=O)N4CCNCC4)c4cc(Cl)ccc34)CC2)c2ccc(F)cc21 [Example 117, 1′-{[6-Chloro-1-(2-oxo-2-piperazin-1-ylethyl)-1H-indol-3-yl]carbonyl}-5-fluoro-3H-spiro[2-benzofuran-1,4′-piperidin]-3-one] |
| 1.1 | O=C1OC2(CCN(C(=O)c3cn(CC(=O)N4CCOCC4)c4cc(Cl)ccc34)CC2)c2ccc(F)cc21 [Example 113, 1′-{[6-Chloro-1-(2-morpholin-4-yl-2-oxoethyl)-1H-indol-3-yl]carbonyl}-5-fluoro-3H-spiro[2-benzofuran-1,4′-piperidin]-3-one] |
| 1 | O=C(Cn1cc(C(=O)N2CCC3(CC2)OC(=O)c2ccccc23)c2ccc(Cl)cc21)c1ccccc1F [Example 153, 1′-({6-Chloro-1-[2-(2-fluorophenyl)-2-oxoethyl]-1H-indol-3-yl}carbonyl)-3H-spiro[2-benzofuran-1,4′-piperidin]-3-one] |
